Source: patent publication US5886165A, “Mixed backbone antisense oligonucleotides containing 2'-5'-ribonucleotide- and 3'-5'-deoxyribonucleotides segments” (Hybridon, Inc., priority 1996, dated 1999)
[25] = 2'-5' internucleotide linkage (phosphodiester)

How the values were obtained:
[1] = system: DNA target strand SEQ ID NO 10 (25 base sequence from the initiation codon region of the HIV-1 gag mRNA); experiment: Thermal melting study, duplex with DNA target strand; assay type: binding; conditions: for Tm DNA: duplex with DNA SEQ ID NO 10, 10 mM disodium hydrogen phosphate pH 7.5, 100 mM NaCl, 2.0 μM total strands; for Tm lower than duplex of control phosphorothioate oligonucleotide SEQ ID NO 8, DNA target: vs SEQ ID NO 8, DNA SEQ ID NO 10
Description: (§1) Thermal denaturation studies were carried out by mixing MBOs with the DNA or RNA target strands in equimolar ratios in 10 mM disodium hydrogen phosphate, pH 7.5±0.1, 100 mM sodium chloride buffer, heated to 95° C. for 10 min, and allowed to come to room temperature slowly before being stored at 4° C. overnight. The final total concentration of the oligonucleotide strands was 2.0 μM. Spectrophotometric measurements were performed at 260 nm using 1 cm path length quartz cuvettes at a heating rate of 0.5° C./min on a Perkin-Elmer (Norwalk, Conn.) Lambda 2 Specotrometer attached to a thermal controller and a personal computer. Melting temperatures (Tm) taken as the temperature of half-dissociation and were obtained from first derivative plots. Precision in Tm values estimated from variance in two or three repeated experiments was ±0.5° C.

[2] = system: RNA target strand SEQ ID NO 9 (25 base sequence from the initiation codon region of the HIV-1 gag mRNA); experiment: Thermal melting study, duplex with RNA target strand; assay type: binding; conditions: for Tm RNA: duplex with RNA SEQ ID NO 9, 10 mM disodium hydrogen phosphate pH 7.5, 100 mM NaCl, 2.0 μM total strands; for Tm lower than duplex of control phosphorothioate oligonucleotide SEQ ID NO 8, RNA target: vs SEQ ID NO 8, RNA SEQ ID NO 9
Description: as §1

[3] = system: HIV-1; experiment: Inhibition of HIV-1 replication in cell culture (MT-4 cells, MTT); assay type: cell-based; conditions: for IC50: 6 days
Description: Oligonucleotides according to the invention were studied for their ability to inhibit HIV-1. HIV-1 inhibition assay was carried out as described previously. Kandimalla et al., Nucleic Acids Res., supra). Briefly, serial dilutions of antisense oligonucleotides were prepared in 50 μl volumes of complete medium (RAMI-1640, 10% fetal bovine serum, 2 mM L-glutamine, 100 U/ml penicillin, […] streptomycin) in triplicate in 96-well plates. Virus diluted to contain a 90% CP dose of virus in 50 μl was added, followed by 100 μl 4×10^5 /ml MT-4 cells in complete medium. The plates were incubated at 37° C. in 5% CO2 for 6 days. MTT dye was added and quantified at A540 and A690 as described. The percent inhibition was calculated by the formula (experimental--virus control)/(medium control--virus control)×100.

[4] = system: Spleen cells (CD1 mouse); experiment: In vitro cell proliferation assay ([3H]thymidine); assay type: cell-based; conditions: at 10 μg/ml, 48 hrs
Description: Cell proliferation assays were carried out as described earlier (Zhao et al., Biochem. Pharmacol 51, 173-182 (1996)). Spleen cells (4-5 week old male CD1 mouse, 20-22 gm, Charles River, Wilmington, Mass.) suspensions were prepared and plated in 96-well dishes at a density of 10^6 cells/ml in a final volume of 100 μl. The cells were incubated at 37° C. after adding 10 μl of oligonucleotides. After 44 hrs incubation, 1 μCi [3H]thymidine (Amersham, Arlington Heights, Ill.) was added and the cells were pulse-labeled for another 4 hrs. The cells were harvested by an automatic cell harvester and the filters were counted by a scintillation counter. All experiments were carried out in triplicate.

[5] = system: citrated normal human donor plasma; experiment: Clotting assay, activated partial thromboplastin time (aPTT); conditions: compared to saline control; for 50% Prolongation of Clotting (aPTT): human plasma
Description: The activated partial thromboplastin time (aPTT) was performed with citrated normal human donor plasma in duplicate on an Electra 1000C (Medical Laboratory Automation, Mount Vernon, N.Y.) according to recommended procedures using Actin FSL (Baxter Dade, Miami, Fla.) and 2.5 mM calcium to initiate clot formation, which was measured photometrically. Normal plasma aPTT values ranged from 27 to 39 sec. Data were calculated as 50% of prolongation as compared to the saline control.

[6] = system: normal human serum complement lysis of sheep red blood cells; experiment: CH50 hemolytic complement assay; conditions: for 50% Inhibition of Complement Lysis: compared to saline control
Description: A CH50 assay for complement lysis of sheep red blood cells (Colorado Serum Co., Denver, Col.) sensitized with anti-sheep red cell antibody (hemolysin; Diamedix, Miami, Fla.) as previously described (Mayer, In Experimental Immunochemistry, Kabat and Mayer eds., C. C. Thomas, Springfield, pp. 125-131 (1961)), was modified to test 1-200 dilutions of normal human serum interpreted. Hemoglobin release into cell-free supernates was measured spectrophotometrically at 541 nm. Data were calculated as 50% inhibition of lysis compared to saline control.

[7] = Stability in DMEM cell culture medium containing 10% fetal calf serum; assay type: in vitro ADME; conditions: DMEM with 10% non-heat-inactivated fetal calf serum, 37° C.
Description: Oligonucleotides were labeled at the 5'-end with ^32 P using γ-^32 P-ATP (Amersham) and T4 polynucleotide kinase (Promega). Sambrook et al, Molecular Cloning, supra. Stability of the oligonucleotides in cell culture medium containing 10% fetal calf serum was tested by incubating a small amount of labeled oligonucleotide together with 100 ng of cold oligonucleotide in DMEM cell culture medium (Gibco/BRL, Grand Island, N.Y.) containing 10% non-heat-inactivated fetal calf serum (Gibco/BRL) at 37° C. in a final volume of 40 μl, and aliquots were removed at different times.

[8] = molecular target: T1, S1 nuclease (Aspergillus oryzae, UniProt P24021); experiment: S1 nuclease assay; assay type: in vitro ADME; conditions: 1.4 U, 37° C., pH 5.0
T1 construct: purchased Gibco/BRL
T1 sequence (P24021 21-287): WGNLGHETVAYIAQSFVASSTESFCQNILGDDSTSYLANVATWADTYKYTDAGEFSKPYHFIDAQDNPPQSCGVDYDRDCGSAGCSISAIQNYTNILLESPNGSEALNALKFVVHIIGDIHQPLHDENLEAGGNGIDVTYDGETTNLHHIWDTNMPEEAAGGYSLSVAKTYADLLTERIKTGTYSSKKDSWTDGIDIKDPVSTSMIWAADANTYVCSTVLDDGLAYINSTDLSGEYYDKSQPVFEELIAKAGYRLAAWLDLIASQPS
Description: For snake venom phosphodiesterase assay, labeled oligonucleotide with cold oligonucleotide in a buffer (10 mM Tris, pH 8.0, 100 mM sodium chloride, and 10 mM magnesium chloride) was incubated with 0.01 U of snake venom phosphodiesterase (Boehringer-Mannheim, Indianapolis, Ind.) at 21° C. (final volume 40 μl). Aliquots were removed at different time intervals for electrophoretic gel analysis. For S1 nuclease assay, reactions were carried out as above but in […] sodium acetate, pH 5.0, 10 mM zinc acetate buffer and with 1.4 U of S1 nuclease (Gibco/BRL) incubated at 37° C. in a final volume of 50 μl. Aliquots were removed at different time intervals for electrophoretic gel analysis. Nuclease reactions were stopped by adding 5 μl of formamide gel loading buffer to each sample and heating at 90° C. for 5 min. All the samples were then run by 20% PAGE (7M urea) and visualized by autoradiography.

SEQ ID NO 2: MBO with three 2'-5'-linkages at each end; 2'-5'-phosphodiester and 3'-5'-phosphorothioate linkages (antisense CUCTCGCACCCATCTCTCTCCUUCT; linkages [25]3 s18 [25]3 (s phosphorothioate, o phosphodiester), sugars by position and methylation of C not given here)
Tm DNA [1]: 52.5 °C | Tm RNA [2]: 63.3 °C | IC50 [3]: 99.9 nM | concentration required to achieve IC50 relative to control SEQ ID NO 8 ([3]; HIV-1 replication): four fold higher concentration | Stimulation Index (Lymphocyte Proliferation) [4]: 2.82 ± 0.37 | 50% Prolongation of Clotting (aPTT) [5]: 51.1 µg/mL | 50% Inhibition of Complement Lysis [6]: 59.1 µg/mL

SEQ ID NO 3: Phosphorothioate analog of SEQ ID NO 1 (antisense CUCTCGCACCCATCTCTCTCCUUCT; phosphorothioate, chemistry not fully specified)
Tm DNA [1]: 51.9 °C | Tm lower than duplex of control phosphorothioate oligonucleotide SEQ ID NO 8, DNA target [1]: about 4.70 °C | Tm RNA [2]: 61.1 °C | Tm lower than duplex of control phosphorothioate oligonucleotide SEQ ID NO 8, RNA target [2]: ~2.4 °C | IC50 [3]: 29.8 nM | Stimulation Index (Lymphocyte Proliferation) [4]: 4.9 | Stimulation Index (Lymphocyte Proliferation) ([4]; listed as 3): 4.93 ± 0.15 | 50% Prolongation of Clotting (aPTT) [5]: 58.0 µg/mL | 50% Inhibition of Complement Lysis [6]: 95.2 µg/mL

SEQ ID NO 5: MBO with nine 2'-5'-linkages; 2'-5'-phosphodiester and 3'-5'-phosphorothioate linkages (antisense CUCTCGCACCCAUCTCTCTCCUUCT; nine 2'-5' phosphodiester linkages, other linkages 3'-5' phosphorothioate, further chemistry not given here)
Tm DNA [1]: 43.2 °C | Tm RNA [2]: 61.2 °C | IC50 [3]: > 800 nM | IC50 ([3]; listed as 5): 812 nM | Stimulation Index (Lymphocyte Proliferation) [4]: 1.09 ± 0.05 | 50% Prolongation of Clotting (aPTT) [5]: 115.0 µg/mL

SEQ ID NO 6: Phosphorothioate analog of SEQ ID NO 4, with nine 2'-5' linkages (antisense CUCTCGCACCCAUCTCTCTCCUUCT; all linkages phosphorothioate, nine 2'-5' linkages, further chemistry not given here)
Tm DNA [1]: 39.4 °C | Tm lower than duplex of control phosphorothioate oligonucleotide SEQ ID NO 8, DNA target [1]: 17.2 °C | Tm RNA [2]: 56.4 °C | Tm lower than duplex of control phosphorothioate oligonucleotide SEQ ID NO 8, RNA target [2]: 7.1 °C | Stimulation Index (Lymphocyte Proliferation) [4]: 0.23 | Stimulation Index (Lymphocyte Proliferation) ([4]; listed as 6): 0.23 ± 0.04 | 50% Prolongation of Clotting (aPTT) [5]: 98.3 µg/mL | 50% Inhibition of Complement Lysis [6]: > 500.0 µg/mL

SEQ ID NO 7: Control phosphodiester oligonucleotide containing all 3'-5' linkages (CTCTCGCACCCATCTCTCTCCTTCT; all phosphodiester, sugars by position and methylation of C not given here) [reference compound]
Tm DNA [1]: 63.5 °C | Tm RNA [2]: 70.5 °C | Stimulation Index (Lymphocyte Proliferation) [4]: 1.10 ± 0.13 | 50% Prolongation of Clotting (aPTT) [5]: > 100.0 µg/mL | effect in coagulation assay (in words) ([5]; up to 100 μg/ml dose): negligible effect | 50% Inhibition of Complement Lysis [6]: > 500.0 µg/mL | half-life in serum [7]: < 30 min | digestion by S1 nuclease (in words) [8]: quickly digested

SEQ ID NO 8: Control phosphorothioate oligonucleotide containing all 3'-5' linkages (CTCTCGCACCCATCTCTCTCCTTCT; all phosphorothioate, sugars by position and methylation of C not given here) [reference compound]
Tm DNA [1]: 56.6 °C | Tm RNA [2]: 63.5 °C | IC50 [3]: 24.9 nM | Stimulation Index (Lymphocyte Proliferation) [4]: 6.16 | Stimulation Index (Lymphocyte Proliferation) ([4]; listed as 8): 6.16 ± 0.12 | 50% Prolongation of Clotting (aPTT) [5]: about 23 μg/ml | 50% Prolongation of Clotting (aPTT) ([5]; listed as 8): 23.2 µg/mL | effect on complement hemolytic activity (in words) [6]: inhibited serum complement hemolytic activity | 50% Inhibition of Complement Lysis [6]: 34.2 µg/mL
